Measurements as given in patent US8008291B2 (Mimetica Pty Ltd, priority 2008, dated 2011).
pIC50: −log10 of the molar value.

target: T1, human MC5R (hMC5R) (Homo sapiens, UniProt P33032); assay: Human MC5R radioligand binding assay (membranes, [125I] NDP-MSH displacement); details: hMC5R binding; tested as trifluoroacetate or hydrochloride salts, or free bases; read-out: MC5R radioligand IC50
T1 construct: purchased Perkin Elmer RBXMC5M400UA
In short: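 Displacement of [125I]NDP-MSH (radioiodinated in house, HPLC-purified) from hMC5R membranes by test compound measured after 1 hr incubation at 37° C.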

T1 sequence (P33032 whole entry): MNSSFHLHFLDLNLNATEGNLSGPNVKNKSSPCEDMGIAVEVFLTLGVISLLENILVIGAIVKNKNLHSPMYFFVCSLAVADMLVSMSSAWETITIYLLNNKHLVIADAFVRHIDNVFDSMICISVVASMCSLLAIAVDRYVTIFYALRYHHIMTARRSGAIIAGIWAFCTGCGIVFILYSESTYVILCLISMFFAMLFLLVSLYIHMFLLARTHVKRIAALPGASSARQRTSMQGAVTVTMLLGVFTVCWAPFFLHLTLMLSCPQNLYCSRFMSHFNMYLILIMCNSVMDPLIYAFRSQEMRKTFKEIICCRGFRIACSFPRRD

Row | pIC50 | Compound
1 | > 5.00 | C=C(C)C(CC)CN1CC[C@@H](CNC(=O)c2ccc(Cl)c(Cl)c2)N[C@@H](CCN)C1=O (stereo partly drawn) [Compound 475, N-(((3S,5S)-3-(2-aminoethyl)-1-(2-ethyl-3-methylbut-3-enyl)-2-oxo-1,4-diazepan-5-yl)methyl)-3,4-dichlorobenzamide]
2 | > 7.00 | CCC(C)(CC)CN1CC[C@@H](CNC(=O)c2ccc3cc(Cl)ccc3c2)N[C@@H](CCN2CCCCC2)C1=O [Compound 513, 6-chloro-N-(((3S,5S)-1-(2-ethyl-2-methylbutyl)-2-oxo-3-(2-(piperidin-1-yl)-ethyl)-1,4-diazepan-5-yl)methyl)-2-naphthamide]
3 | > 8.00 | CC[C@H](CN1CC[C@@H](CNC(=O)c2ccc3cc(Cl)ccc3c2)N[C@@H](CCNC(=N)NC(C)C)C1=O)c1ccccc1 [Compound 474, 6-chloro-N-(((3S,5S)-3-(2-(3-isopropylguanidino)ethyl)-2-oxo-1-((S)-2-phenylbutyl)-1,4-diazepan-5-yl)methyl)-2-naphthamide]
4 | > 7.00 | O=C(NC[C@@H]1CCN(CC(c2ccccc2)c2ccccc2)C(=O)[C@H](CCN2CCCCC2)N1)c1ccc(C(F)(F)F)cc1 [Compound 434, N-(((3S,5S)-1-(2,2-diphenylethyl)-2-oxo-3-(2-(piperidin-1-yl)ethyl)-1,4-diazepan-yl)methyl)-4-(trifluoromethyl)benzamide]
5 | > 5.00 | Cc1ccc(S(=O)(=O)NCC[C@@H]2N[C@H](CNC(=O)c3ccc(Cl)c(Cl)c3)CCN(Cc3ccc(Cl)cc3Cl)C2=O)cc1 [Compound 505, 3,4-dichloro-N-(((3S,5S)-1-(2,4-dichlorobenzyl)-3-(2-(4-methylphenylsulfonamido)ethyl)-2-oxo-1,4-diazepan-5-yl)methyl)benzamide]
6 | > 6.00 | CCC(CN1CC[C@@H](CNC(=O)c2ccc(Cl)c(Cl)c2)N[C@@H](CCN2CCCCC2)C1=O)C1CC1 (stereo partly drawn) [Compound 486, 3,4-dichloro-N-(((3S,5S)-1-(2-cyclopropylbutyl)-2-oxo-3-(2-(piperidin-1-yl)ethyl)-1,4-diazepan-5-yl)methyl)benzamide]
7 | > 7.00 | O=C(NC[C@@H]1CCN(CC(c2ccccc2)c2ccccc2)C(=O)[C@H](CCN2CCCC2)N1)c1ccc2ccccc2c1 [Compound 367, N-(((3S,5S)-1-(2,2-diphenylethyl)-2-oxo-3-(2-(pyrrolidin-1-yl)ethyl)-1,4-diazepan-5-yl)methyl)-2-naphthamide]
8 | > 7.00 | CC[C@H](CN1CC[C@@H](CNC(=O)c2ccc(Cl)c(Cl)c2)N[C@@H](CCN2CCC(C(=O)O)CC2)C1=O)c1ccccc1 [Compound 451, 1-(2-((2S,7S)-7-((3,4-dichlorobenzamido)methyl)-3-oxo-4-((S)-2-phenylbutyl)-1,4-diazepan-2-yl)ethyl)piperidine-4-carboxylic acid]
9 | > 5.00 | CCC(C)(CC)CN1CC[C@@H](CNC(=O)c2ccc(Cl)c(Cl)c2)N[C@@H](CCN)C1=O [Compound 520, N-(((3S,5S)-3-(2-aminoethyl)-1-(2-ethyl-2-methylbutyl)-2-oxo-1,4-diazepan-5-yl)methyl)-3,4-dichlorobenzamide]
10 | > 7.00 | O=C(NC[C@@H]1CCN(CC(c2ccccc2)c2ccccc2)C(=O)[C@H](CN2CCCCC2)N1)c1ccc2ccccc2c1 [Compound 275, N-(((3S,5S)-1-(2,2-diphenylethyl)-2-oxo-3-(piperidin-1-ylmethyl)-1,4-diazepan-5-yl)methyl)-2-naphthamide]
11 | > 6.00 | CC[C@H](CN1CC[C@@H](CNC(=O)NCc2ccc(Cl)cc2)N[C@@H](CCN2CCCCC2)C1=O)c1ccccc1 [Compound 518]
12 | > 6.00 | NCCC[C@@H]1N[C@H](CNC(=O)c2ccc(-c3ccccc3)cc2)CCN(CC(c2ccccc2)c2ccccc2)C1=O [Compound 106, N-(((3S,5S)-3-(3-aminopropyl)-1-(2,2-diphenylethyl)-2-oxo-1,4-diazepan-5-yl)methyl)biphenyl-4-carboxamide]
13 | > 6.00 | NCC[C@@H]1N[C@H](CNC(=O)c2ccc3ccccc3c2)CCN(CC(c2ccccc2)c2ccccc2)C1=O [Compound 260, N-(((3S,5S)-3-(2-aminoethyl)-1-(2,2-diphenylethyl)-2-oxo-1,4-diazepan-5-yl)methyl)-2-naphthamide]
14 | > 7.00 | CC[C@@H](CN1CC[C@@H](CNC(=O)c2ccc(Cl)c(Cl)c2)N[C@@H](CCN2CCCCC2)C1=O)c1ccccc1 [Compound 363, 3,4-dichloro-N-(((3S,5S)-2-oxo-1-((R)-2-phenylbutyl)-3-(2-(piperidin-1-yl)ethyl)-1,4-diazepan-5-yl)methyl)benzamide]
15 | > 6.00 | C[C@H](CN1CC[C@@H](CNC(=O)c2ccc3ccccc3c2)N[C@@H](CCN2CCCCC2)C1=O)c1ccc(Cl)cc1 [Compound 424, N-(((3S,5S)-1-((S)-2-(4-chlorophenyl)propyl)-2-oxo-3-(2-(piperidin-1-yl)ethyl)-1,4-diazepan-5-yl)methyl)-2-naphthamide]
16 | > 6.00 | N=C(N)NCCC[C@@H]1N[C@H](CNC(=O)c2ccc3ccccc3c2)CCN(C2CCCCC2)C1=O [Compound 205, N-(((3S,5S)-1-cyclohexyl-3-(3-guanidinopropyl)-2-oxo-1,4-diazepan-5-yl)methyl)-2-naphthamide]

More lines, now with the values behind:

Row | Compound | pIC50
17 | CC(C)[C@H](CN1CC[C@@H](CNC(=O)c2ccc3ccccc3c2)N[C@@H](CCN2CCCCC2)C1=O)c1ccccc1 [Compound 395, N-(((3S,5S)-1-((S)-3-methyl-2-phenylbutyl)-2-oxo-3-(2-(piperidin-1-yl)ethyl)-1,4-diazepan-5-yl)methyl)-2-naphthamide] | > 7.00
18 | NCCC[C@@H]1N[C@H](CNC(=O)c2ccc3ccccc3c2)CCN(Cc2ccc(Cl)cc2)C1=O [Compound 323, N-(((3S,5S)-3-(3-aminopropyl)-1-(4-chlorobenzyl)-2-oxo-1,4-diazepan-5-yl)methyl)-2-naphthamide] | > 5.00
19 | NCCCC[C@@H]1N[C@H](CNC(=O)Cc2ccc(-c3ccccc3)cc2)CCN(Cc2ccc3ccccc3c2)C1=O [Compound 121, N-(((3S,5S)-3-(4-aminobutyl)-1-(naphthalen-2-ylmethyl)-2-oxo-1,4-diazepan-5-yl)methyl)-2-(biphenyl-4-yl)acetamide] | > 6.00
20 | CC(=O)NCCC[C@@H]1N[C@H](CNC(=O)/C=C/c2ccc(C)cc2)CCN(CC(c2ccccc2)c2ccccc2)C1=O [Compound 293, (E)-N-(((3S,5S)-3-(3-acetamidopropyl)-1-(2,2-diphenylethyl)-2-oxo-1,4-diazepan-5-yl)methyl)-3-p-tolylacrylamide] | > 6.00
21 | NCCCC[C@@H]1N[C@H](CNC(=O)c2cc3ccccc3o2)CCN(CC(c2ccccc2)c2ccccc2)C1=O [Compound 129, N-(((3S,5S)-3-(4-aminobutyl)-1-(2,2-diphenylethyl)-2-oxo-1,4-diazepan-5-yl)methyl)benzofuran-2-carboxamide] | > 5.00
22 | N=C(N)NCCC[C@@H]1N[C@H](CNC(=O)c2ccc3ccccc3c2)CCN(CC(C(=O)N2CCCCC2)c2ccccc2)C1=O (stereo partly drawn) [Compound 343, N-(((3S,5S)-3-(3-guanidinopropyl)-2-oxo-1-(3-oxo-2-phenyl-3-(piperidin-1-yl)propyl)-1,4-diazepan-5-yl)methyl)-2-naphthamide] | > 5.00
23 | C=C(C)C(CC)CN1CC[C@@H](CNC(=O)c2ccc3cc(Cl)ccc3c2)N[C@@H](CCN)C1=O (stereo partly drawn) [Compound 477, N-(((3S,5S)-3-(2-aminoethyl)-1-(2-ethyl-3-methylbut-3-enyl)-2-oxo-1,4-diazepan-5-yl)methyl)-6-chloro-2-naphthamide] | > 8.00
24 | NCCC[C@@H]1N[C@H](CNC(=O)c2ccc3ccccc3c2)CCN(Cc2cccc(Cl)c2)C1=O [Compound 341, N-(((3S,5S)-3-(3-aminopropyl)-1-(3-chlorobenzyl)-2-oxo-1,4-diazepan-5-yl)methyl)-2-naphthamide] | > 5.00
25 | NCC[C@@H]1N[C@H](CNC(=O)c2ccc3cc(Cl)ccc3c2)CCN(Cc2ccc(Cl)cc2Cl)C1=O [Compound 507, N-(((3S,5S)-3-(2-aminoethyl)-1-(2,4-dichlorobenzyl)-2-oxo-1,4-diazepan-5-yl)methyl)-6-chloro-2-naphthamide] | > 7.00
26 | CC(=O)N[C@@H](Cc1cnc[nH]1)C(=O)N[C@@H](Cc1ccc2ccccc2c1)[C@@H]1CCN(CC(c2ccccc2)c2ccccc2)C(=O)[C@H](CCCNC(=N)N)N1 [Compound 81, (S)-2-acetamido-N-((S)-1-((3S,5S)-1-(2,2-diphenylethyl)-3-(3-guanidinopropyl)-2-oxo-1,4-diazepan-5-yl)-2-(naphthalen-2-yl)ethyl)-3-(1H-imidazol-5-yl)propanamide] | > 6.00
27 | O=C1[C@H](CCN2CCCCC2)N[C@H](CNCc2ccc(Cl)c(Cl)c2)CCN1CC(c1ccccc1)c1ccccc1 [Compound 456, (3S,5S)-5-((3,4-dichlorobenzylamino)methyl)-1-(2,2-diphenylethyl)-3-(2-(piperidin-1-yl)ethyl)-1,4-diazepan-2-one] | > 7.00
28 | O=C(NC[C@@H]1CCN(Cc2cc(Cl)cc(Cl)c2)C(=O)[C@H](CCN2CCCCC2)N1)c1ccc2cc(Cl)ccc2c1 [Compound 467, 6-chloro-N-(((3S,5S)-1-(3,5-dichlorobenzyl)-2-oxo-3-(2-(piperidin-1-yl)ethyl)-1,4-diazepan-5-yl)methyl)-2-naphthamide] | > 7.00
29 | CC[C@@H](CN1CC[C@@H](CNC(=O)c2ccc(Cl)c(Cl)c2)N[C@@H](CCN2CCCCC2)C1=O)C(C)C [Compound 461, 3,4-dichloro-N-(((3S,5S)-1-((R)-2-ethyl-3-methylbutyl)-2-oxo-3-(2-(piperidin-1-yl)ethyl)-1,4-diazepan-5-yl)methyl)benzamide] | > 7.00
30 | CC(CN1CC[C@@H](CNC(=O)c2ccc3ccccc3c2)N[C@@H](CCN)C1=O)c1ccc(Cl)cc1 (stereo partly drawn) [Compound 422, N-(((3S,5S)-3-(2-aminoethyl)-1-(2-(4-chlorophenyl)propyl)-2-oxo-1,4-diazepan-5-yl)methyl)-2-naphthamide] | > 5.00
